Source: patent US20110207144A1, “IN VITRO SCREENING ASSAYS” (priority 2009, published 2011)

System: Human Umbilical Vein Endothelial Cell (HUVEC)
Test: HUVEC vasculogenesis/angiogenesis assay (HUVEC co-cultured with human fibroblasts, CD31 labeling of vessels)
Format: cell-based
Settings: for all three vessel parameters relative to the control wells: 11 days, p<0.05, one way ANOVA
Protocol: Studies were conducted to determine the effects of anti-LOXL2 antibody AB0023 in an in vitro vasculogenesis/angiogenesis assay. For this purpose, a dose range of AB0023 was tested alongside VEGF (an angiogenesis promoter), suramin (an angiogenesis inhibitor) and media alone in a HUVECs based in vitro system. The assay was run for 11 days with media changes on days 1, 4, 7 and 9. After 11 days, wells were fixed with 70% ethanol and vessels were tested for expression of CD31, an endothelial marker. Images of 4 random fields per well were taken and the number of branch points, number of vessels and total vessel length was calculated for each well using a specialist software analysis package.
At this point (day 1), fresh endothelial cell growth medium containing the test item and controls, as detailed in Table 1, was added to wells at 0.5 ml per well. Test item and controls were added in duplicate or triplicate according to Table 1, and media-only added in triplicate acted as baseline endothelial growth control. The plate was then cultured at 37° C. and 5% CO2. On days 4, 7 and 9 the medium was removed from all wells and carefully replaced with 0.5 ml of fresh medium containing the test item and controls as detailed in Table 1. On day 11, the plates were fixed and labeled for CD31 as detailed below. On each day of the experiment the plate was visualized using an inverted microscope to ensure normal growth cells and no contamination.
After 11 days, plates were fixed by carefully aspirating medium from wells, washed with 1 ml PBS per well, and then 1 ml ice cold 70% ethanol was added for 30 minutes at room temperature. Fixative was then carefully removed and the wells were incubated with 0.5 ml mouse anti-human CD31 antibody diluted 1:400 in PBS containing 1% BSA and incubated for 60 minutes at 37° C. Wells were then washed three times with 1 ml PBS followed by incubation with 0.5 ml goat anti-mouse IgG alkaline phosphatase conjugated secondary antibody diluted 1:500 in PBS containing 1% BSA for 60 minutes at 37° C. Wells were washed a further three times with 1 ml PBS prior to incubation with 0.5 ml freshly prepared and filtered BCIP/NBT substrate for 10 minutes at 37° C. Wells were then carefully washed three times with 1 ml distilled water and left to air dry overnight.
Digital images of each well were obtained using a Nikon Coolpix camera on a Leica inverted microscope at 10× magnification. Four random fields per well were imaged, producing 96 images in total. Images were then converted to BMP files and imported into an image analysis package to measure the number of vessel branches, number of vessels and total vessel length. This is performed by thresholding the image so that only CD31-stained vessels were detected, which the software then skeletonized to produce single pixel width vessels. From these, individual vessel length, total vessel length and number of vessel branch points were determined. The data were then exported to Excel to calculate mean and standard deviation for each data set. Basic statistics were carried out using a one-way ANOVA.

Compound | number of branches relative to the control group (20 μM suramin, p<0.05 one way ANOVA) | vessel formation relative to control wells (suramin 20 μM (FIG. 2)) | all three vessel parameters relative to the control wells (suramin 20 μM) | branching relative to the control group | vessel formation relative to control wells (VEGF 2 ng/ml (FIG. 4)) | all three vessel parameters relative to the control wells (VEGF 2 ng/ml)
Cc1ccc(C(=O)Nc2ccc(S(=O)(=O)O)c3cc(S(=O)(=O)O)cc(S(=O)(=O)O)c23)cc1NC(=O)c1cccc(NC(=O)Nc2cccc(C(=O)Nc3cc(C(=O)Nc4ccc(S(=O)(=O)O)c5cc(S(=O)(=O)O)cc(S(=O)(=O)O)c45)ccc3C)c2)c1 [Suramin, suramin] | significant reduction | decrease in vessel formation | significant decrease |  |  | 
VEGF |  |  |  | significant increase | increase in vessel formation | increase
